Tested on: NOMO1
Test: cell viability relative to DMSO control; higher = less cytotoxic
Details: 48 h
How it was run: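 Viability is expressed as a percentage of DMSO wells within each plate, and cell-free wells serve as background. Seeding densities in the 1536-well plates (5 μl) were 500 cells/well for NOMO1 or SEM leukemia cells and 1000 cells/well for P12-Ichikawa. Each line was adapted for at least four passages in each medium. Library compounds in DMSO were pin-dosed at 47 μM to 0.79 nM (11 points, threefold), and CellTiter-Glo One luminescence was read after 48 h at 37°C.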

[1] = HPLM + 10% dialyzed FBS, 0.000781 µM
[2] = HPLM + 10% dialyzed FBS, 0.00234 µM
[3] = HPLM + 10% dialyzed FBS, 0.00702 µM
[4] = HPLM + 10% dialyzed FBS, 0.0211 µM
[5] = HPLM + 10% dialyzed FBS, 0.0632 µM
[6] = HPLM + 10% dialyzed FBS, 0.19 µM
[7] = HPLM + 10% dialyzed FBS, 0.569 µM
[8] = HPLM + 10% dialyzed FBS, 1.71 µM
[9] = HPLM + 10% dialyzed FBS, 5.12 µM
[10] = HPLM + 10% dialyzed FBS, 15.4 µM
[11] = HPLM + 10% dialyzed FBS, 46.1 µM
[12] = RPMI 5 mM glucose + 10% dialyzed FBS, 0.000781 µM
[13] = RPMI 5 mM glucose + 10% dialyzed FBS, 0.00234 µM
[14] = RPMI 5 mM glucose + 10% dialyzed FBS, 0.00702 µM
[15] = RPMI 5 mM glucose + 10% dialyzed FBS, 0.0211 µM
[16] = RPMI 5 mM glucose + 10% dialyzed FBS, 0.0632 µM
[17] = RPMI 5 mM glucose + 10% dialyzed FBS, 0.19 µM
[18] = RPMI 5 mM glucose + 10% dialyzed FBS, 0.569 µM
[19] = RPMI 5 mM glucose + 10% dialyzed FBS, 1.71 µM
[20] = RPMI 5 mM glucose + 10% dialyzed FBS, 5.12 µM
[21] = RPMI 5 mM glucose + 10% dialyzed FBS, 15.4 µM
[22] = RPMI 5 mM glucose + 10% dialyzed FBS, 46.1 µM
[23] = RPMI 5 mM glucose + 10% FBS, 0.000781 µM
[24] = RPMI 5 mM glucose + 10% FBS, 0.00234 µM
[25] = RPMI 5 mM glucose + 10% FBS, 0.00702 µM
[26] = RPMI 5 mM glucose + 10% FBS, 0.0211 µM
[27] = RPMI 5 mM glucose + 10% FBS, 0.0632 µM
[28] = RPMI 5 mM glucose + 10% FBS, 0.19 µM
[29] = RPMI 5 mM glucose + 10% FBS, 0.569 µM
[30] = RPMI 5 mM glucose + 10% FBS, 1.71 µM
[31] = RPMI 5 mM glucose + 10% FBS, 5.12 µM
[32] = RPMI 5 mM glucose + 10% FBS, 15.4 µM
[33] = RPMI 5 mM glucose + 10% FBS, 46.1 µM

| SMILES | cell viability [1] [%] | cell viability [2] [%] | cell viability [3] [%] | cell viability [4] [%] | cell viability [5] [%] | cell viability [6] [%] | cell viability [7] [%] | cell viability [8] [%] | cell viability [9] [%] | cell viability [10] [%] | cell viability [11] [%] | cell viability [12] [%] | cell viability [13] [%] | cell viability [14] [%] | cell viability [15] [%] | cell viability [16] [%] | cell viability [17] [%] | cell viability [18] [%] | cell viability [19] [%] | cell viability [20] [%] | cell viability [21] [%] | cell viability [22] [%] | cell viability [23] [%] | cell viability [24] [%] | cell viability [25] [%] | cell viability [26] [%] | cell viability [27] [%] | cell viability [28] [%] | cell viability [29] [%] | cell viability [30] [%] | cell viability [31] [%] | cell viability [32] [%] | cell viability [33] [%] |
| --- | --- | --- | --- | --- | --- | --- | --- | --- | --- | --- | --- | --- | --- | --- | --- | --- | --- | --- | --- | --- | --- | --- | --- | --- | --- | --- | --- | --- | --- | --- | --- | --- | --- |
| C1Cc2[nH]nc(-c3nn[nH]n3)c2C1 | 128 | 120 | 119 | 139 | 149 | 145 | 131 | 143 | 140 | 145 | 142 | 122 | 124 | 131 | 139 | 135 | 144 | 137 | 147 | 131 | 145 | 149 |  |  |  |  |  |  |  |  |  |  |  |
| C[C@@H]1C[C@H]2[C@@H]3\C=C(C)/C4=C/C5=C(C[C@]4(C)[C@H]3[C@@H](O)C[C@]2(C)[C@@]1(O)C(=O)COC(C)=O)C=N[N]5C6=CC=CC=C6 | 116 | 123 | 114 | 113 | 123 | 106 | 106 | 106 | 104 | 108 | 90 | 127 | 121 | 110 | 122 | 125 | 114 | 109 | 108 | 104 | 109 | 100 |  |  |  |  |  |  |  |  |  |  |  |
| CN1C(=O)\C(=C/C(=C1/NC2=C(F)C=C(I)C=C2)C(=O)NOCCO)C | 89.8 | 89.6 | 77.9 | 64.2 | 46.3 | 45.8 | 40.2 | 41.6 | 32.9 | 39.8 | 36.1 | 75 | 81.7 | 78.5 | 62.9 | 45.9 | 40.8 | 40 | 40.4 | 37.6 | 43.1 | 43.3 | 86 | 93.8 | 75.3 | 72 | 50.2 | 52.2 | 49.4 | 46.7 | 43.4 | 41.4 | 46.5 |
| COc1cc2nccc(Oc3ccc(NC(=O)Nc4ccc(F)cc4F)c(F)c3)c2cc1OC | 101 | 95.8 | 94.1 | 84.6 | 89.9 | 86 | 90.3 | 83.6 | 75 | 78.7 | 72.2 | 96.6 | 96.1 | 103 | 91.9 | 94.5 | 90.1 | 81.7 | 102 | 80.7 | 83.2 | 54.6 | 83 | 95.8 | 79.6 | 90.5 | 96.2 | 88.1 | 87.5 | 90.9 | 83 | 80.1 | 75.7 |
| C[N]1C=NC=C1[C@@](N)(C2=CC=C(Cl)C=C2)C3=CC=C4N(C)C(=O)\C=C(\C5=CC=CC(=C5)Cl)C4=C3 | 108 | 98.5 | 112 | 129 | 91.5 | 95.4 | 84.9 | 83.4 | 76.2 | 73.5 | 47.2 | 112 | 111 | 121 | 106 | 110 | 97.3 | 97.1 | 87.7 | 80.9 | 67.4 | 41.7 | 100 | 95.6 | 95.5 | 93.2 | 102 | 94.2 | 90.3 | 84.8 | 85.4 | 82.6 | 52.8 |
| NC(=O)c1ccc(-c2nc(-c3ccc4c(c3)OCCO4)c(-c3ccccn3)[nH]2)cc1 |  |  |  |  |  |  |  |  |  |  |  | 121 | 119 | 119 | 118 | 134 | 113 | 131 | 125 | 114 | 116 | 119 | 105 | 104 | 104 | 106 | 118 | 119 | 121 | 114 | 122 | 107 | 114 |
| C[C@H]1CN(C[C@@H](C)O1)CC(=O)NC2=CC=C3SC4=C(CC3=C2)C=CC=C4\C5=C\C(=O)\C=C(/O5)N6CCOCC6 | 100 | 125 | 108 | 123 | 126 | 128 | 118 | 89.2 | 72.5 | 39.2 | 35 | 85 | 108 | 107 | 106 | 104 | 113 | 100 | 97.3 | 85.5 | 62.7 | 45.2 | 93.4 | 125 | 121 | 118 | 107 | 106 | 98.7 | 106 | 96.8 | 64.2 | 55.8 |
| COc1nc(-c2ccc3c(c2)OCO3)n(-c2ccc(NC(=O)CSc3ccccc3)cc2)n1 |  |  |  |  |  |  |  |  |  |  |  | 102 | 108 | 110 | 117 | 105 | 106 | 103 | 105 | 97.7 | 98.7 | 23.1 | 105 | 108 | 114 | 103 | 113 | 106 | 107 | 102 | 116 | 89.1 | 21.2 |
| FC(F)(F)c1ccc(Nc2nc3cc(Oc4ccnc(-c5ncc(C(F)(F)F)[nH]5)c4)ccc3[nH]2)cc1 |  |  |  |  |  |  |  |  |  |  |  | 109 | 124 | 136 | 133 | 136 | 132 | 131 | 145 | 130 | 148 | 89.3 |  |  |  |  |  |  |  |  |  |  |  |
| O=C(Nc1ccc(OC(F)(F)F)cc1)c1sccc1NCc1ccnc2ccccc12 | 118 | 109 | 127 | 123 | 109 | 110 | 80.1 | 43.1 | 33.4 | 33.8 | 41.4 | 105 | 106 | 113 | 117 | 107 | 109 | 116 | 91.6 | 57 | 28 | 36.1 | 118 | 101 | 117 | 121 | 112 | 105 | 108 | 96 | 52.8 | 22.6 | 25.3 |
| Cc1c[nH]c(/C=C2\C(=O)Nc3ccccc32)c1CCC(=O)O | 109 | 114 | 116 | 101 | 90.1 | 102 | 95.3 | 83 | 82.2 | 61.3 | 50.7 | 123 | 126 | 121 | 110 | 109 | 111 | 118 | 104 | 91.7 | 77.1 | 58.6 | 125 | 124 | 114 | 122 | 122 | 116 | 121 | 116 | 103 | 70.6 | 68.1 |
| C=C(C)[C@@H]1CC[C@]2(C)CC[C@]3(C)[C@H](CC[C@@H]4[C@@]5(C)CC[C@H](O)C(C)(C)[C@@H]5CC[C@]43C)[C@@H]12 | 90.7 | 95.3 | 104 | 123 | 115 | 127 | 109 | 119 | 134 | 117 | 131 | 113 | 106 | 111 | 106 | 100 | 113 | 113 | 123 | 123 | 124 | 115 | 106 | 111 | 114 | 126 | 121 | 127 | 121 | 115 | 124 | 130 | 115 |
| CN(N=O)C(=O)N[C@H]1C(O)OC(CO)[C@@H](O)[C@@H]1O (some centres not stated) | 82.7 | 89.7 | 98.6 | 95.7 | 98.6 | 82.6 | 90.2 | 85 | 83.1 | 93.1 | 88.4 | 69.3 | 78.8 | 74.3 | 75.5 | 84.3 | 75.6 | 81.2 | 82.7 | 81.4 | 86 | 72.4 | 77.7 | 79.6 | 82.4 | 80.6 | 81.3 | 90.3 | 85.7 | 73.7 | 81.5 | 88 | 79.5 |
| Cc1ccc(NC(=O)C2(c3ccc4c(c3)OC(F)(F)O4)CC2)nc1-c1cccc(C(=O)O)c1 | 107 | 122 | 95.4 | 102 | 98.8 | 53.4 | 19 | 9.04 | 7.86 | 6.36 | 4.68 | 99.8 | 99.8 | 92.1 | 110 | 102 | 56.8 | 27 | 11.4 | 8.3 | 7.38 | 4.48 | 97.6 | 93.2 | 99.6 | 96.9 | 91.6 | 43.4 | 17.4 | 10.2 | 7.42 | 6.77 | 4.07 |
| CCC1=C[C@@H]2CN(C1)Cc1c([nH]c3ccccc13)[C@@](C(=O)OC)(c1cc3c(cc1OC)N(C)[C@H]1[C@@](O)(C(=O)OC)[C@H](OC(C)=O)[C@]4(CC)C=CCN5CC[C@]31[C@@H]54)C2 | 127 | 119 | 108 | 96.9 | 49.3 | 34.5 | 38 | 34.5 | 38.4 | 47 | 27.4 | 120 | 114 | 114 | 107 | 86.5 | 18.8 | 25.7 | 26.5 | 29 | 27.8 | 20.5 | 106 | 98.3 | 98.9 | 99.3 | 70.5 | 20.6 | 21.1 | 23.4 | 22.4 | 29.2 | 18.9 |
| Clc1ccc(C2(c3ccc(-c4cn[nH]c4)cc3)CCNCC2)cc1 | 80.5 | 101 | 111 | 100 | 100 | 98.2 | 96.6 | 91.9 | 69.9 | 63.3 | 62.7 | 86.7 | 99.2 | 83.4 | 93.5 | 99 | 103 | 81.4 | 72.2 | 70.3 | 59.9 | 53.7 | 80.2 | 81.3 | 86.4 | 83.8 | 90.8 | 89.2 | 98.9 | 77.9 | 77.6 | 65.6 | 55.3 |

Reference: the supplement of paper PMC11451515
